Results taken from the supplement of paper PMC13380429.
± gives the standard deviation of the averaged measurements.

Legend:
Details in all cases: 72 h
Vero E6 [1] = assay: drug sensitivity score (DSS) for viability; higher = more toxic; extreme values may be limits of the assay
Caco-2 [2] = assay: as above
HepG2 [3] = assay: as above
Calu-3 [4] = assay: as above
U2OS [5] = assay: as above
Vero E6 [6] = assay: relative viability EC50 (midpoint between 100% and the lowest measured viability); higher = less toxic
Caco-2 [7] = assay: as above
HepG2 [8] = assay: as above
Calu-3 [9] = assay: as above
U2OS [10] = assay: as above
Vero E6 [11] = assay: cell viability relative to DMSO; higher = less toxic
Caco-2 [12] = assay: as above
HepG2 [13] = assay: as above
Calu-3 [14] = assay: as above
U2OS [15] = assay: as above

SMILES | drug sensitivity score (Vero E6 [1]) | drug sensitivity score (Caco-2 [2]) | drug sensitivity score (HepG2 [3]) | drug sensitivity score (Calu-3 [4]) | drug sensitivity score (U2OS [5]) | relative viability EC50 (Vero E6 [6]) [µM] | relative viability EC50 (Caco-2 [7]) [µM] | relative viability EC50 (HepG2 [8]) [µM] | relative viability EC50 (Calu-3 [9]) [µM] | relative viability EC50 (U2OS [10]) [µM] | cell viability (Vero E6 [11]; 1 nM) [%] | cell viability (Vero E6 [11]; 10 nM) [%] | cell viability (Vero E6 [11]; 100 nM) [%] | cell viability (Vero E6 [11]; 1000 nM) [%] | cell viability (Vero E6 [11]; 10000 nM) [%] | cell viability (Caco-2 [12]; 1 nM) [%] | cell viability (Caco-2 [12]; 10 nM) [%] | cell viability (Caco-2 [12]; 100 nM) [%] | cell viability (Caco-2 [12]; 1000 nM) [%] | cell viability (Caco-2 [12]; 10000 nM) [%] | cell viability (HepG2 [13]; 1 nM) [%] | cell viability (HepG2 [13]; 10 nM) [%] | cell viability (HepG2 [13]; 100 nM) [%] | cell viability (HepG2 [13]; 1000 nM) [%] | cell viability (HepG2 [13]; 10000 nM) [%] | cell viability (Calu-3 [14]; 1 nM) [%] | cell viability (Calu-3 [14]; 10 nM) [%] | cell viability (Calu-3 [14]; 100 nM) [%] | cell viability (Calu-3 [14]; 1000 nM) [%] | cell viability (Calu-3 [14]; 10000 nM) [%] | cell viability (U2OS [15]; 1 nM) [%] | cell viability (U2OS [15]; 10 nM) [%] | cell viability (U2OS [15]; 100 nM) [%] | cell viability (U2OS [15]; 1000 nM) [%] | cell viability (U2OS [15]; 10000 nM) [%]
CCCC[C@H](NC(C)=O)C(=O)N[C@H]1CC(=O)NCCCC[C@@H](C(=O)O)NC(=O)[C@H](Cc2c[nH]c3ccccc23)NC(=O)[C@H](CCCNC(=N)N)NC(=O)[C@@H](Cc2ccccc2)NC(=O)[C@H](Cc2c[nH]cn2)NC1=O [bremelanotide] | 0 | 0 | 0 | 0 | 0 | > 10 | > 10 | > 10 | > 10 | > 10 | 100 | 102 | 108 | 99.3 | 107 | 114 | 94.4 | 85.7 | 90.8 | 117 | 115 | 118 | 95.7 | 102 | 98.9 | 99.1 | 104 | 90.8 | 100 | 96.2 | 99.9 | 102 | 95 | 104 | 101
O=C(NCc1ccccc1)OCCO [buramate] | 0 | 0 | 1 | 0 | 0 | > 10 | > 10 | > 10 | > 10 | > 10 | 100 | 102 | 111 | 92 | 101 | 96.1 | 105 | 89.9 | 102 | 88.1 | 106 | 97.8 | 104 | 86.8 | 85.8 | 99.7 | 97.3 | 95.8 | 94.9 | 91.5 | 99.5 | 100 | 99.7 | 100 | 100
C[S+](C)CC[C@H](N)C(=O)O [cabagin] | 0 | 0 | 0 | 0 | 0 | > 10 | > 10 | > 10 | > 10 | > 10 | 92.1 | 99.5 | 85.3 | 101 | 108 | 90.6 | 97.6 | 109 | 97.3 | 99.6 | 95.6 | 99.5 | 103 | 102 | 98.5 | 103 | 84.8 | 85.1 | 86.3 | 103 | 97.9 | 92.3 | 101 | 94.7 | 100
O=C([O-])C(O)[C@H](O)[C@@H](O)[C@H](O)[C@H](O)CO.O=C([O-])C(O)[C@H](O)[C@@H](O)[C@H](O)[C@H](O)CO.[Ca+2] (stereo not given in full) [calcium-gluceptate] | 0 | 0 | 0 | 0 | 0 | > 10 | > 10 | > 10 | > 10 | > 10 | 97.2 ± 7.6 | 85.1 ± 15 | 91.5 ± 2.7 | 82.3 ± 16 | 108.3 ± 0.49 | 95.7 ± 8 | 93.6 ± 0.71 | 92.9 ± 8.3 | 98.8 ± 2.1 | 103.5 ± 0.14 | 100 ± 12 | 95.1 ± 23 | 103 ± 6.7 | 100 ± 4 | 100 ± 8 | 138 ± 44 | 99 ± 6.2 | 101 ± 7.8 | 94.2 ± 20 | 97.4 ± 1.1 | 98.9 | 89.9 | 101 | 95.3 | 106
CCCCCOC(=O)Nc1nc(=O)n([C@@H]2O[C@H](C)[C@@H](O)[C@H]2O)cc1F [capecitabine] | 0 | 0 | 0 | 0 | 0 | > 10 | > 10 | > 10 | > 10 | > 10 | 102 | 101 | 99.7 | 95 | 95.6 | 107 | 110 | 103 | 96.1 | 106 | 97 | 104 | 104 | 99.9 | 96.3 | 99 | 110 | 91.8 | 98.6 | 101 | 96.7 | 103 | 94.3 | 92.6 | 101
C=CC1=C(C(=O)O)N2C(=O)[C@@H](NC(=O)/C(=N\O)c3csc(N)n3)[C@H]2SC1 [cefdinir] | 0 | 0 | 0 | 0 | 0 | > 10 | > 10 | > 10 | > 10 | > 10 | 104 | 100 | 99.8 | 97.7 | 99.9 | 100 | 98.9 | 90.3 | 101 | 99.2 | 110 | 92.9 | 101 | 93.1 | 97.5 | 101 | 91.8 | 92.3 | 102 | 101 | 94 | 104 | 94.8 | 102 | 100
CO/N=C(\C(=O)N[C@@H]1C(=O)N2C(C(=O)O)=CCS[C@H]12)c1csc(N)n1 [ceftizoxim] | 0 | 0 | 0 | 0 | 0 | > 10 | > 10 | > 10 | > 10 | > 10 | 102 | 99.2 | 95.2 | 95.6 | 105 | 89.5 | 100 | 92.1 | 103 | 95.7 | 97.5 | 96.1 | 107 | 103 | 103 | 97.2 | 93.6 | 103 | 105 | 93.4 | 97.7 | 99.2 | 94.5 | 98.8 | 98.7
CC(C)(O)C(Cl)(Cl)Cl [chlorobutanol] | 0 | 0 | 0 | 0 | 0 | > 10 | > 10 | > 10 | > 10 | > 10 | 102 | 96.9 | 100 | 102 | 102 | 95 | 107 | 98.7 | 85.2 | 98.1 | 110 | 96.8 | 105 | 96.1 | 110 | 105 | 107 | 104 | 110 | 98.9 | 99.7 | 101 | 96.5 | 98.3 | 96.5
C=C1CC[C@H](O)C/C1=C/C=C1\CCC[C@]2(C)[C@@H]([C@H](C)CCCC(C)C)CC[C@@H]12 [cholecalciferol] | 0 | 0 | 0 | 0 | 0 | > 10 | > 10 | > 10 | > 10 | > 10 | 92.1 | 85.5 | 102 | 93.8 | 120 | 95.6 | 88.2 | 101 | 103 | 144 | 90.3 | 82.4 | 92.8 | 93.4 | 84.6 | 100 | 102 | 96.5 | 108 | 95.5 | 94.6 | 103 | 96.4 | 100 | 99.4
CCn1nc(C(=O)O)c(=O)c2cc3c(cc21)OCO3 [cinoxacin] | 0 | 0 | 0 | 0 | 0 | > 10 | > 10 | > 10 | > 10 | > 10 | 91.4 | 102 | 92.1 | 89.4 | 102 | 99.3 | 100 | 100 | 106 | 98.3 | 100 | 86.1 | 110 | 85.1 | 103 | 99.3 | 98.6 | 89.4 | 93.9 | 98.7 | 95.1 | 97.3 | 94.2 | 98.5 | 99.5
Cn1c(CNc2ccc(C(=N)N)cc2)nc2cc(C(=O)N(CCC(=O)O)c3ccccn3)ccc21 [dabigatran] | 0 | 0 | 0 | 0 | 0 | > 10 | > 10 | > 10 | > 10 | > 10 | 96.9 | 96.4 | 99.1 | 101 | 99 | 109 | 97.1 | 101 | 94 | 95.5 | 103 | 95.8 | 104 | 97.8 | 91.7 | 114 | 99.6 | 90.1 | 93.7 | 92.8 | 104 | 99.3 | 101 | 97.1 | 98.1
CC1(C)O[C@@H]2C[C@H]3[C@@H]4CCC5=CC(=O)C=C[C@]5(C)[C@H]4[C@@H](O)C[C@]3(C)[C@]2(C(=O)CO)O1 [desonide] | 0 | 0 | 0 | 0 | 0 | > 10 | > 10 | > 10 | > 10 | > 10 | 102 | 102 | 101 | 108 | 99.5 | 103 | 106 | 95 | 112 | 120 | 102 | 101 | 93.9 | 94.6 | 94.6 | 124 | 92.5 | 95 | 101 | 96.9 | 99.5 | 94.9 | 101 | 93.6 | 97.9
O=c1[nH]cnc2c1ncn2[C@H]1CC[C@@H](CO)O1 [didanosine] | 0 | 0 | 0 | 0 | 0 | > 10 | > 10 | > 10 | > 10 | > 10 | 96 | 97.3 | 95.2 | 98 | 107 | 107 | 88.7 | 97.9 | 85.3 | 108 | 99.6 | 84.8 | 90.7 | 90.8 | 105 | 96.3 | 85 | 114 | 106 | 99.9 | 99.4 | 93.6 | 102 | 101 | 107
O=c1[nH]c2ccccc2n1CCCN1CCC(n2c(=O)[nH]c3cc(Cl)ccc32)CC1 [domperidone] | 0 | 0 | 0 | 0 | 0 | > 10 | > 10 | > 10 | > 10 | > 10 | 90 | 93.8 | 95.8 | 96.6 | 89 | 100 | 96.1 | 96.7 | 92.1 | 94.3 | 94.6 | 96.4 | 92.3 | 104 | 95.7 | 102 | 94.6 | 105 | 106 | 101 | 103 | 90.7 | 97.6 | 95.6 | 94.2
